We go through 31 compounds from US10913727B2, “Modulators of the integrated stress pathway” (Calico Life Sciences LLC, priority 2016, dated 2021).

Some results are limits rather than exact numbers.

The test system of this test is HEK293T cells carrying the ATF4 luciferase reporter. As to the kind of experiment: ATF4-Luc assay, in vitro model of Vanishing Cell White Matter Disease (VWMD). Conditions: Homo sapiens, HEK-293T, 1 μg/mL tunicamycin, 7 hours, One Glo luminescence. The test is classed as cell-based. Put shortly: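 Reporter cells were stably generated by retroviral transduction and puromycin selection, then seeded at 30,000 cells/well. Next day, cells received 1 μg/mL tunicamycin with 200 nM test compound for 7 h, and luciferase luminescence was read with a one-step reagent. Values reported as EC50.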
Regarding `COC1CN(c2ccnc(C(=O)NC34CC(NC(=O)COc5ccc(Cl)c(F)c5)(C3)C4)c2)C1` [Compound 190, N-{3-[2-(4-chloro-3-fluorophenoxy)acetamido]bicyclo[1.1.1]pentan-1-yl}-4-(3-methoxyazetidin-1-yl)pyridine-2-carboxamide], the EC50 (as a rule, the concentration needed to bring the measured effect to its halfway point) was in the range of 250 to 1000 nM.

For the compound `Cc1cc2c(NC34CC(NC(=O)COc5ccc(OC(F)(F)F)c(F)c5)(C3)C4)nccn2n1` [Compound 496, 2-[3-fluoro-4-(trifluoromethoxy)phenoxy]-N-{3-[(2-methylpyrazolo[1,5-a]pyrazin-4-yl)amino]bicyclo[1.1.1]pentan-1-yl}acetamide], the EC50 lay within 50 to 250 nM.

With `Cn1cc(-c2ccnc(NC34CC(NC(=O)COc5ccc(Cl)c(F)c5)(C3)C4)n2)cn1` [Compound 381, 2-(4-chloro-3-fluorophenoxy)-N-(3-{[4-(1-methyl-1H-pyrazol-4-yl)pyrimidin-2-yl]amino}bicyclo[1.1.1]pentan-1-yl)acetamide], the EC50 fell in the range of 1000 to 2000 nM.

On to `CCCOc1ccc(C(=O)NC23CC(NC(=O)COc4ccc(Cl)c(F)c4)(C2)C3)cc1` [Compound 316, N-{3-[2-(4-chloro-3-fluorophenoxy)acetamido]bicyclo[1.1.1]pentan-1-yl}-4-propoxybenzamide], for which the EC50 is 50 to 250 nM.

With `O=C(COc1ccc(Cl)c(F)c1)NC12CCC(NC(=O)c3cnc(C(F)F)cn3)(CC1)C(O)C2` (stereo not shown) [Compound 195, N-{4-[2-(4-chloro-3-fluorophenoxy)acetamido]-2-hydroxybicyclo[2.2.2]octan-1-yl}-5-(difluoromethyl)pyrazine-2-carboxamide], the EC50 was less than 50 nM.

As to `O=C(COc1ccc(Cl)c(F)c1)NC12CC(NC(=O)c3ccc(C4CC4)cn3)(C1)C2` [Compound 143, N-{3-[2-(4-chloro-3-fluorophenoxy)acetamido]bicyclo[1.1.1]pentan-1-yl}-5-cyclopropylpyridine-2-carboxamide], the EC50 lay in the range of 50 to 250 nM.

On to `CCOc1ncccc1C(=O)NC12CC(NC(=O)COc3ccc(Cl)c(F)c3)(C1)C2` [Compound 861, N-{3-[2-(4-chloro-3-fluorophenoxy)acetamido]bicyclo[1.1.1]pentan-1-yl}-2-ethoxypyridine-3-carboxamide], for which the EC50 is more than 2000 nM.

For the compound `CC(C)(C)OC(=O)N1CCC=C(c2ncc(C(=O)NC34CC(NC(=O)COc5ccc(Cl)c(F)c5)(C3)C4)o2)C1` [Compound 150, tert-butyl 5-[5-({3-[2-(4-chloro-3-fluorophenoxy)acetamido]bicyclo[1.1.1]pentan-1-yl}carbamoyl)-1,3-oxazol-2-yl]-3,6-dihydropyridine-1(2H)-carboxylate], the EC50 lay in the range of 50 to 250 nM.

Turning to `Cc1cc2c(NC34CC(NC(=O)COc5ccc6c(c5)OC(F)(F)O6)(C3)C4)nccn2n1` [Compound 422, 2-[(2,2-difluoro-2H-1,3-benzodioxol-5-yl)oxy]-N-{3-[(2-methylpyrazolo[1,5-a]pyrazin-4-yl)amino]bicyclo[1.1.1]pentan-1-yl}acetamide], the EC50 lay within 50 to 250 nM.

On to `COc1cc(C(=O)NC23CCC(NC(=O)COc4ccc(Cl)c(F)c4)(CC2)C(O)C3)on1` (stereo not shown) [Compound 576, N-{4-[2-(4-chloro-3-fluorophenoxy)acetamido]-3-hydroxybicyclo[2.2.2]octan-1-yl}-3-methoxy-1,2-oxazole-5-carboxamide], for which the EC50 lay within 50 to 250 nM.

For `O=C(COc1ccc(Cl)c(F)c1)NC12CCC(NC(=O)c3ccccn3)(C1)C2` [Compound 356, N-{4-[2-(4-chloro-3-fluorophenoxy)acetamido]bicyclo[2.1.1]hexan-1-yl}pyridine-2-carboxamide], the EC50 was more than 2000 nM.

For `COc1ccnc(C(=O)NC23CC(NC(=O)COc4ccc(Cl)c(F)c4)(C2)C3)c1` [Compound 177, N-{3-[2-(4-chloro-3-fluorophenoxy)acetamido]bicyclo[1.1.1]pentan-1-yl}-4-methoxypyridine-2-carboxamide], the EC50 lay in the range of 250 to 1000 nM.

`O=C(COc1ccc(Cl)c(F)c1)NC12CC(NC(=O)c3ccc4cnccc4n3)(C1)C2` [Compound 659, N-{3-[2-(4-chloro-3-fluorophenoxy)acetamido]bicyclo[1.1.1]pentan-1-yl}-1,6-naphthyridine-2-carboxamide]: the EC50 lay within 50 to 250 nM.

As to `Cn1nc(C(=O)NC23CCC(NC(=O)COc4ccc(Cl)c(F)c4)(CC2)C(O)C3)cc1C(F)(F)F` (stereo not shown) [Compound 565, N-{4-[2-(4-chloro-3-fluorophenoxy)acetamido]-3-hydroxybicyclo[2.2.2]octan-1-yl}-1-methyl-5-(trifluoromethyl)-1H-pyrazole-3-carboxamide], the EC50 was in the range of 50 to 250 nM.

Regarding `O=C(COc1ccc(Cl)c(F)c1)NC12CC(NC(=O)c3ncoc3C3CC3)(C1)C2` [Compound 769, N-{3-[2-(4-chloro-3-fluorophenoxy)acetamido]bicyclo[1.1.1]pentan-1-yl}-5-cyclopropyl-1,3-oxazole-4-carboxamide], the EC50 is more than 2000 nM.

Turning to `CCn1cncc1C(=O)NC12CC(NC(=O)COc3ccc(Cl)c(F)c3)(C1)C2` [Compound 775, N-{3-[2-(4-chloro-3-fluorophenoxy)acetamido]bicyclo[1.1.1]pentan-1-yl}-1-ethyl-1H-imidazole-5-carboxamide], the EC50 was more than 2000 nM.

As for `CCc1cnc(C(=O)NC23CC(NC(=O)COc4ccc(Cl)c(Cl)c4)(C2)C3)cn1` [Compound 711, N-{3-[2-(3,4-dichlorophenoxy)acetamido]bicyclo[1.1.1]pentan-1-yl}-5-ethylpyrazine-2-carboxamide], the EC50 was less than 50 nM.

In the case of `Cc1cccc(C(=O)NC23CCC(NC(=O)COc4ccc(Cl)c(F)c4)(CC2)C(O)C3)n1` (stereo not shown) [Compound 914, N-{4-[2-(4-chloro-3-fluorophenoxy)acetamido]-3-hydroxybicyclo[2.2.2]octan-1-yl}-6-methylpyridine-2-carboxamide], the EC50 is 50 to 250 nM.

Take `COC/C=C/c1cnc(C(=O)NC23CC(NC(=O)COc4ccc(Cl)c(F)c4)(C2)C3)cn1` [Compound 171, N-{3-[2-(4-chloro-3-fluorophenoxy)acetamido]bicyclo[1.1.1]pentan-1-yl}-5-[(1E)-3-methoxyprop-1-en-1-yl]pyrazine-2-carboxamide]: the EC50 lay in the range of 50 to 250 nM.

For `Cc1cc(C(=O)NC23CC(NC(=O)COc4ccc(Cl)c(Cl)c4)(C2)C3)on1` [Compound 431, N-{3-[2-(3,4-dichlorophenoxy)acetamido]bicyclo[1.1.1]pentan-1-yl}-3-methyl-1,2-oxazole-5-carboxamide], the EC50 was in the range of 50 to 250 nM.

`Cn1cc(C(=O)NC23CC(NC(=O)COc4ccc(Cl)c(F)c4)(C2)C3)c(C(F)(F)F)n1` [Compound 868, N-{3-[2-(4-chloro-3-fluorophenoxy)acetamido]bicyclo[1.1.1]pentan-1-yl}-1-methyl-3-(trifluoromethyl)-1H-pyrazole-4-carboxamide]: the EC50 was more than 2000 nM.

`CC(C)(C)c1cc(C(=O)NC23CCC(NC(=O)COc4ccc(Cl)c(F)c4)(CC2)C(O)C3)on1` (stereo not shown) [Compound 353, 3-tert-butyl-N-{4-[2-(4-chloro-3-fluorophenoxy)acetamido]-3-hydroxybicyclo[2.2.2]octan-1-yl}-1,2-oxazole-5-carboxamide]: the EC50 lay within 50 to 250 nM.

As for `O=C(COc1ccc(Cl)c(F)c1)NC12CC(NC(=O)c3ccn[nH]3)(C1)C2` [Compound 320, N-{3-[2-(4-chloro-3-fluorophenoxy)acetamido]bicyclo[1.1.1]pentan-1-yl}-1H-pyrazole-5-carboxamide], the EC50 fell in the range of 1000 to 2000 nM.

With `Cc1cc(C(=O)NC23CCC(NC(=O)COc4ccc(Cl)c(F)c4)(CC2)CC3)on1` [Compound 444, N-{4-[2-(4-chloro-3-fluorophenoxy)acetamido]bicyclo[2.2.2]octan-1-yl}-3-methyl-1,2-oxazole-5-carboxamide], the EC50 was more than 2000 nM.

With `O=C(COc1ccc(Cl)c(F)c1)NC12CCC(NC(=O)c3cccnc3)(C1)C2` [Compound 477, N-{4-[2-(4-chloro-3-fluorophenoxy)acetamido]bicyclo[2.1.1]hexan-1-yl}pyridine-3-carboxamide], the EC50 was 1000 to 2000 nM.

Regarding `O=C(COc1ccc(Cl)c(F)c1)NC12CCC(NC(=O)c3ccns3)(CC1)C[C@@H]2O` [Compound 683, N-{(3S)-4-[2-(4-chloro-3-fluorophenoxy)acetamido]-3-hydroxybicyclo[2.2.2]octan-1-yl}-1,2-thiazole-5-carboxamide], the EC50 is less than 50 nM.

On to `Cn1c(C(=O)NC23CC(NC(=O)COc4ccc(Cl)c(F)c4)(C2)C3)cc2sccc21` [Compound 841, N-{3-[2-(4-chloro-3-fluorophenoxy)acetamido]bicyclo[1.1.1]pentan-1-yl}-4-methyl-4H-thieno[3,2-b]pyrrole-5-carboxamide], for which the EC50 lay in the range of 250 to 1000 nM.

In the case of `O=C(COc1ccc(Cl)c(F)c1)NC12CC(NC(=O)c3cc(NC4CC4)ccn3)(C1)C2` [Compound 390, N-{3-[2-(4-chloro-3-fluorophenoxy)acetamido]bicyclo[1.1.1]pentan-1-yl}-4-(cyclopropylamino)pyridine-2-carboxamide], the EC50 was 1000 to 2000 nM.

`CC(C)c1cccc(C(=O)NC23CCC(NC(=O)COc4ccc(Cl)c(F)c4)(CC2)C(O)C3)n1` (stereo not shown) [Compound 911, N-{4-[2-(4-chloro-3-fluorophenoxy)acetamido]-3-hydroxybicyclo[2.2.2]octan-1-yl}-6-(propan-2-yl)pyridine-2-carboxamide]: the EC50 lay in the range of 250 to 1000 nM.

Regarding `CC(C)Oc1ccc(C(=O)NC23CC(NC(=O)COc4ccc(Cl)cc4)(C2)C3)nc1` [Compound 185, N-{3-[2-(4-chlorophenoxy)acetamido]bicyclo[1.1.1]pentan-1-yl}-5-[(propan-2-yl)oxy]pyridine-2-carboxamide], the EC50 is 250 to 1000 nM.

On to `Cn1nc(C(C)(C)C)cc1C(=O)NC12CC(NC(=O)COc3ccc(Cl)c(F)c3)(C1)C2` [Compound 338, 3-tert-butyl-N-{3-[2-(4-chloro-3-fluorophenoxy)acetamido]bicyclo[1.1.1]pentan-1-yl}-1-methyl-1H-pyrazole-5-carboxamide], for which the EC50 was 50 to 250 nM.
